From US9834542B2, “LXR modulators” (BRISTOL-MYERS SQUIBB COMPANY, priority 2013, dated 2017) come the findings set out here.

Molecules are shown by their SMILES.

What is called EC50 is the concentration giving half of the maximal effect.

The target in the assay is T1, LXRβ (Homo sapiens, UniProt P55055).
T1 construct: Co-transfection expression plasmids, comprising full-length LXRα (pCMX-h LXRα[…] or LXRβ (pCMX-hLXRβ)); expressed in transfected cells; host or cells: CV-1 African Green Monkey Kidney Cells
T1 sequence (P55055 1-460): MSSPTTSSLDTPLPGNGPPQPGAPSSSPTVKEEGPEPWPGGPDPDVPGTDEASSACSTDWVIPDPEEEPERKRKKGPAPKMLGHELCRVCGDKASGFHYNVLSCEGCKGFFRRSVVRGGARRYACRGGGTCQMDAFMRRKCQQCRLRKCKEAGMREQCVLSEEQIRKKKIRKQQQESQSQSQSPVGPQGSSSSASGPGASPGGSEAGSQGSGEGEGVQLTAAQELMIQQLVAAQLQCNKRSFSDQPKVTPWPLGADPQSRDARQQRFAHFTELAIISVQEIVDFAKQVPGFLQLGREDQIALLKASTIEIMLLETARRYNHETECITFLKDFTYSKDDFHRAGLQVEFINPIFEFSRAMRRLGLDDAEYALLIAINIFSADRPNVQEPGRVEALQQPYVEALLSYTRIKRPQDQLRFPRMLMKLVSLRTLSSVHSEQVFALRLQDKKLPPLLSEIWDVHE
T1 sequence (P19793 1-462 partner): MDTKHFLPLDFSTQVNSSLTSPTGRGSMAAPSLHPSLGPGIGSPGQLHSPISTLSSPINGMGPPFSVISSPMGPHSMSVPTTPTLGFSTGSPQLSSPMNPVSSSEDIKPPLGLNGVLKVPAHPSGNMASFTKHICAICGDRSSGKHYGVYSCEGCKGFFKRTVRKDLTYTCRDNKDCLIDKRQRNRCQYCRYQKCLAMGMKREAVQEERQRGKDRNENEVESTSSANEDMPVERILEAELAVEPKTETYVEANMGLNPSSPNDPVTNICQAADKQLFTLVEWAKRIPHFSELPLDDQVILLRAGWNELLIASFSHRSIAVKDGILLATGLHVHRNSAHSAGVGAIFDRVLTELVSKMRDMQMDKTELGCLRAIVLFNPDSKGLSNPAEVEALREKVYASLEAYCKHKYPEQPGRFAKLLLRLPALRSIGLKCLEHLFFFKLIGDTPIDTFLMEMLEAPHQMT
Put plainly: Co-transfection assay (LXRE luciferase reporter), LXRβ. To be noted: for EC50: CV-1 cells transfected with pCMX-hLXRβ and LXREx1-Tk-Luciferase, 20 hours incubation; for Emax: LXRβ co-transfection, relative to high control 1-(2,4-difluorobenzyl)-2-oxo-6-(4-phenoxyphenyl)-4-(trifluoromethyl)-1,2-dihydropyridine-3-carbonitrile, read-out: % Efficacy. In kind it is cell-based. The gist of the method:
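Cell-based LXRβ agonism measured as LXRE-luciferase induction in transiently transfected CV-1 cells after 20 h treatment. Potency is the curve-fit EC50; efficacy is expressed as percent of a full-agonist control's maximal response.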
On the technique in general: A reporter such as luciferase makes a cellular process visible.

`Cc1nc(C(F)(F)F)cn1-c1ccc(-c2cccc(S(N)(=O)=O)c2)cc1-n1nncc1-c1ccc(OC(F)(F)F)cc1` [Example 44, 4′-[2-methyl-4-(trifluoromethyl)-1H-imidazol-1-yl]-3′-(5-{4-[(trifluoromethyl)oxy]phenyl}-1H-1,2,3-triazol-1-yl)biphenyl-3-sulfonamide]: the EC50 is 1270 nM and the Emax was determined as 95%.
On the same counts, the results for `Cc1nc(C(F)(F)F)cn1-c1ccc(-c2cccc(S(C)(=O)=O)c2)cc1-c1nc(C2CC2)cn1-c1ccc(Cl)cc1` [Example 646, 1-(4-chlorophenyl)-4-cyclopropyl-2-(4-(2-methyl-4-(trifluoromethyl)-1H-imidazol-1-yl)-3′-(methylsulfonyl)-[1,1′-biphenyl]-3-yl)-1H-imidazole] are 572 nM and 44%.
As for `Cc1nc(C(F)(F)F)cn1-c1c(Cl)cc(-c2cc(F)c(CO)c(S(C)(=O)=O)c2)cc1-n1nncc1-c1ccc(OC(F)(F)F)cc1` [Example 196, [3′-chloro-3-fluoro-5-(methylsulfonyl)-4′-[2-methyl-4-(trifluoromethyl)-1H-imidazol-1-yl]-5′-(5-{4-[(trifluoromethyl)oxy]phenyl}-1H-1,2,3-triazol-1-yl)biphenyl-4-yl]methanol], the EC50 came to 241 nM and the Emax was 68%.
As for `Cc1nc(C(F)(F)F)cn1-c1cc(F)c(-c2cccc(S(C)(=O)=O)c2)cc1-n1nncc1-c1ccc(OC(F)(F)F)cc1` [Example 99, 1-{6-fluoro-3′-(methylsulfonyl)-4-[2-methyl-4-(trifluoromethyl)-1H-imidazol-1-yl]biphenyl-3-yl}-5-{4-[(trifluoromethyl)oxy]phenyl}-1H-1,2,3-triazole], the midpoint of the response, the EC50, lay at 1010 nM and the Emax came out at 86%.
For the compound `CCCc1nc(-c2cc(-c3cccc(S(C)(=O)=O)c3)ccc2-n2cc(C(F)(F)F)nc2C)c(-c2ccc(OC(F)(F)F)cc2)o1` [Example 520, 4-(4-(2-methyl-4-(trifluoromethyl)-1H-imidazol-1-yl)-3′-(methylsulfonyl)-[1,1′-biphenyl]-3-yl)-2-propyl-5-(4-(trifluoromethoxy)phenyl)oxazole], the EC50 amounted to 22 nM and the Emax was found to be 86%.
The like results for `CNS(=O)(=O)c1cccc(-c2cc(F)c(-n3cc(C(F)(F)F)nc3C)c(-n3nncc3-c3ccc(OC(F)(F)F)cc3)c2)c1` [Example 205, 3′-fluoro-N-methyl-4′-[2-methyl-4-(trifluoromethyl)-1H-imidazol-1-yl]-5′-(5-{4-[(trifluoromethyl)oxy]phenyl}-1H-1,2,3-triazol-1-yl)biphenyl-3-sulfonamide] were, in that order, 111 nM and 85%.
Consider `Cc1nc(-c2ccc(Cl)cc2Cl)c(-c2cc(-c3ccc(CO)c(S(C)(=O)=O)c3)ccc2-n2cc(C(F)(F)F)nc2C)o1` [Example 614, (3′-(4-(2,4-dichlorophenyl)-2-methyloxazol-5-yl)-4′-(2-methyl-4-(trifluoromethyl)-1H-imidazol-1-yl)-3-(methylsulfonyl)-[1,1′-biphenyl]-4-yl)methanol], for which the 50% effective concentration (EC50) is 47 nM and the Emax was found to be 103%.
The like results for `Cc1nc(C(F)(F)F)cn1-c1ccc(-c2cccc(S(C)(=O)=O)c2)cc1-n1nncc1-c1ccc(Cl)cc1F` [Example 39, 5-(4-chloro-2-fluorophenyl)-1-{3′-(methylsulfonyl)-4-[2-methyl-4-(trifluoromethyl)-1H-imidazol-1-yl]biphenyl-3-yl}-1H-1,2,3-triazole] were, in that order, 860 nM and 92%.
The like results for `COCc1ccc(-c2ccc(-n3cc(C(F)(F)F)nc3C)c(-n3nncc3-c3ccc(OC(F)(F)F)cc3)c2)cc1S(C)(=O)=O` [Example 89, 1-{4′-[(methyloxy)methyl]-3′-(methylsulfonyl)-4-[2-methyl-4-(trifluoromethyl)-1H-imidazol-1-yl]biphenyl-3-yl}-5-{4-[(trifluoromethyl)oxy]phenyl}-1H-1,2,3-triazole] were, in that order, 316 nM and 83%.
The like results for `Cc1nc(C(F)(F)F)cn1-c1ccc(-c2cccc(S(C)(=O)=O)c2)cc1-n1nncc1Cc1ccc(F)cc1` [Example 124, 5-[(4-fluorophenyl)methyl]-1-{3′-(methylsulfonyl)-4-[2-methyl-4-(trifluoromethyl)-1H-imidazol-1-yl]biphenyl-3-yl}-1H-1,2,3-triazole] were, in that order, 1160 nM and 64%.
For `Cc1cc(-c2cc(-c3cccc(S(C)(=O)=O)c3)ccc2-n2cc(C(F)(F)F)nc2C)n(-c2ccc(OC(F)(F)F)cc2)n1` [Example 291, 3-methyl-5-{3′-(methylsulfonyl)-4-[2-methyl-4-(trifluoromethyl)-1H-imidazol-1-yl]biphenyl-3-yl}-1-{4-[(trifluoromethyl)oxy]phenyl}-1H-pyrazole], the midpoint of the response, the EC50, lay at 47 nM and the Emax turned out to be 69%.
On the same counts, the results for `Cc1nc(C(F)(F)F)cn1-c1ccc(-c2cccc(S(C)(=O)=O)c2)cc1-c1ocnc1Cc1ccc(OC(F)(F)F)cc1` [Example 636, 5-(4-(2-methyl-4-(trifluoromethyl)-1H-imidazol-1-yl)-3′-(methylsulfonyl)-[1,1′-biphenyl]-3-yl)-4-(4-(trifluoromethoxy)benzyl)oxazole] are 702 nM and 41%.
On the same counts, the results for `COc1ncc(-c2oc(C)nc2-c2cc(-c3cccc(S(C)(=O)=O)c3)ccc2-n2cc(Cl)nc2C)cc1F` [Example 464, 4-(4-(4-chloro-2-methyl-1H-imidazol-1-yl)-3′-(methylsulfonyl)biphenyl-3-yl)-5-(5-fluoro-6-methoxypyridin-3-yl)-2-methyloxazole] are 4680 nM and 42%.
On the same counts, the results for `COCc1c(F)cc(-c2cc(F)c(-n3cc(C(F)(F)F)nc3C)c(-n3nncc3-c3ccc(Cl)cc3)c2)cc1S(C)(=O)=O` [Example 207, 5-(4-chlorophenyl)-1-{3′,5-difluoro-4′-[(methyloxy)methyl]-5′-(methylsulfonyl)-4-[2-methyl-4-(trifluoromethyl)-1H-imidazol-1-yl]biphenyl-3-yl}-1H-1,2,3-triazole] are 176 nM and 76%.
Turning to `Cc1nc(-c2cc(-c3cccc(S(C)(=O)=O)c3)ccc2-n2cc(C(F)(F)F)nc2C)c(-c2cccc(OC(F)(F)F)c2)o1` [Example 573, 2-methyl-4-(4-(2-methyl-4-(trifluoromethyl)-1H-imidazol-1-yl)-3′-(methylsulfonyl)-[1,1′-biphenyl]-3-yl)-5-(3-(trifluoromethoxy)phenyl)oxazole], the concentration for a half-maximal effect (EC50) came to 127 nM and the Emax is 50%.
On to `Cc1nc(C(F)(F)F)cn1-c1ccc(-c2cc(F)cc(S(C)(=O)=O)c2)cc1-c1nc(C(F)(F)F)cn1-c1ccc2c(c1)OC(F)(F)O2` [Example 641, 1-(2,2-difluorobenzo[d][1,3]dioxol-5-yl)-2-(3′-fluoro-4-(2-methyl-4-(trifluoromethyl)-1H-imidazol-1-yl)-5′-(methylsulfonyl)biphenyl-3-yl)-4-(trifluoromethyl)-1H-imidazole], for which the midpoint of the response, the EC50, lay at 721 nM and the Emax was determined as 59%.
On the same counts, the results for `Cc1nc(C(F)(F)F)cn1-c1ccc(-c2ccc(CO)c(S(C)(=O)=O)c2)cc1-c1oc(CCO)nc1-c1ccc(OC(F)(F)F)cc1` [Example 613, 2-(5-(4′-(hydroxymethyl)-4-(2-methyl-4-(trifluoromethyl)-1H-imidazol-1-yl)-3′-(methylsulfonyl)-[1,1′-biphenyl]-3-yl)-4-(4-(trifluoromethoxy)phenyl)oxazol-2-yl)ethanol] are 1160 nM and 62%.
With `Cc1nc(C(F)(F)F)cn1-c1ccc(-c2cc(F)c(CO)c(S(C)(=O)=O)c2)cc1-n1nncc1-c1ccc(Cl)cc1Cl` [Example 67, {3′-[5-(2,4-dichlorophenyl)-1H-1,2,3-triazol-1-yl]-3-fluoro-5-(methylsulfonyl)-4′-[2-methyl-4-(trifluoromcehyl)-1H-imidazol-1-yl]biphenyl-4-yl}methanol], the EC50 was 127 nM and the Emax was 81%.
